For 27 compounds, IC50 results are on record in patent publication US20230106583A1, “HETEROARYL COMPOUNDS” (Vivace Therapeutics, Inc., priority 2019, published 2023).

In the assay the test system is HEK293T cells stably transfected with 8XTBD luciferase reporter and pRLTK. The assay is described as follows: YAP Reporter Assay (8XTBD-driven firefly luciferase). Type of assay: cell-based. To be noted: Homo sapiens, HEK-293T; HEK293T 8XTBD luciferase reporter; 24-hr incubation with compounds; top concentration 3 μM, 10 points. The method, then:
HEK293T cells stably transfected with 8XTBD luciferase reporter and pRLTK in 384-well plates were treated with the test compounds, starting from 3 μM (final concentration in assay plate), 1:3 dilution, and 10 points in quadruplicates. Post 24-hr incubation with compounds at 37° C. and 5% CO2, cells were lysed and 8XTBD-driven firefly luciferase and control TK-driven renilla luciferase activities were measured using Promega Dual-Luciferase Reporter Assay System.
Reagents: The reagents used for this study are: DMEM: Invitrogen #11960077, Dual-Glo Luciferase Assay System: Promega-E2980, Puromycin Dihydrochloride: Invitrogen-A1113803, 384-well plate: PerkinElmer-6007480, L-GLUTAMINE: Invitrogen-25030164, Hygromycin B: Invitrogen-10687010, and Penicillin-Streptomycin: Merk-TMS-AB2-C
Media: The media used for this assay were: Culture Medium: DMEM+1 ug/mL puromycin+200 ug/mL hygromycin (with 10% FBS+1 mM L-glutamine); and Assay Medium: DMEM (with 10% FBS+1 mM L-glutamine+1×P/S).
Cell Plating: The appropriate media was warmed at 37° C. by water bath: Culture Medium, Assay Medium, 1*D-PBS, 0.05% trypsin-EDTA. The cells were trypsinized after removing all media, then washed with 1*sterile D-PBS and then with 2 ml 0.05% trypsin-EDTA. The cells were then incubated at RT for one minute. Then 10 ml/75 cm2 flask Assay Medium was added to each flask. Using a 10 ml pipette, the cells were then gently resuspended in the media, until the clumps completely disappeared. The cells were then transferred into 50 ml centrifuge tubes and were centrifuged at 800 rpm for 5 mins. The medium was removed and the cells were resuspended with Assay Medium. An aliquot of cells was used to count the cell density (cells/ml). The cell suspension was then diluted with Assay Medium to a concentration of 6×10^4 cells/ml. 50 ul cells suspension was then plated to 384-well plate (PerkinElmer-6007480), 3×10^3 cells/well and the cells were incubated in an incubator at 37° C., 5% CO2.
Compound Treatment: In the afternoon (incubation of the plate with 3-4 hrs), the test compounds were added by Echo, starting from 3 uM (final concentration in the assay plate), 1:3 dilution, 10 points, quadruplicates. The plate was placed at 37° C., 5% CO2 incubator for 24 hrs.
Detection: The Dual-Glo Luciferase Reagent was prepared by transferring the contents of one bottle of Dual-Glo Luciferase Buffer to one bottle of Dual-Glo Luciferase Substrate to create the Dual-Glo Luciferase Reagent. Mixing was performed by inversion until the substrate was thoroughly dissolved. After mixing, the reagent was aliquoted into 15 ml tubes. In the afternoon (24 hrs post compound treatment), the DMEM+medium in the 384 well plates were aspirated by Microplate Washer.
Measuring firefly luciferase activity: 20 ul Dual-Glo Luciferase Reagent was added to the 384-well plates. The plates were protected from light to prevent interference with the assay. The plates were shaken for 1 min followed centrifuging plates at 1000 rpm for 30 seconds. After waiting at least 10 minutes, the firefly luminescence was measured by Envision.
Measuring renilla luciferase activity: 20 ul Stop-Glo Reagent was added to the 384-well plates. The plates were shaken for 1 min and then centrifuged at 1000 rpm for 30 seconds. After waiting at least 10 minutes, the renilla luminescence was measured by Envision.
Compound IC50 and maximum inhibition on the firefly luciferase and renilla luciferase activities were reported separately.
A general note: Reporter assays use an easily measured gene product as a stand-in for the process of interest.

As usually defined, the IC50 is the concentration needed to halve the response being measured. Take `CN(C#N)CCc1nnc(-c2nccnc2Nc2ccc(C(F)(F)F)cc2)o1` [Compound 1, methyl-[2-[5-[3-[4-(trifluoromethyl)anilino]pyrazin-2-yl]-1,3,4-oxadiazol-2-yl]ethyl]cyanamide]: the IC50 was at most 100 nM. Take `CCN(C#N)CCc1nnc(-c2nccnc2Nc2ccc(C(F)(F)F)cc2)o1` [Compound 2, ethyl-[2-[5-[3-[4-(trifluoromethyl)anilino]pyrazin-2-yl]-1,3,4-oxadiazol-2-yl]ethyl]cyanamide]: the IC50 was at most 100 nM.

In the case of `CCN(C#N)Cc1nnc(-c2cccnc2Nc2ccc(C(F)(F)F)cc2)o1` [Compound 5, ethyl-[[5-[2-[4-(trifluoromethyl)anilino]-3-pyridyl]-1,3,4-oxadiazol-2-yl]methyl]cyanamide], the IC50 is at most 100 nM. As to `CN(C#N)Cc1nnc(-c2cccnc2Nc2ccc(C(F)(F)F)cc2)o1` [Compound 6, methyl-[[5-[2-[4-(trifluoromethyl)anilino]-3-pyridyl]-1,3,4-oxadiazol-2-yl]methyl]cyanamide], the concentration for half-maximal inhibition (IC50) was at most 100 nM. The figure for `CCN(Cc1nnc(-c2cccnc2Nc2ccc(C(F)(F)F)cc2)o1)C(=O)OC(C)(C)C` [Compound 8, tert-butyl N-ethyl-N-[[5-[2-[4-(trifluoromethyl)anilino]-3-pyridyl]-1,3,4-oxadiazol-2-yl]methyl]carbamate] is 1000 to 3000 nM; for `CNCc1nnc(-c2cccnc2Nc2ccc(C(F)(F)F)cc2)o1` [Compound 9, 3-[5-(methylaminomethyl)-1,3,4-oxadiazol-2-yl]-N-[4-(trifluoromethyl)phenyl]pyridin-2-amine] it is 100 to 1000 nM; for `C[C@]1(c2nnc(-c3cccnc3Nc3ccc(C(F)(F)F)cc3)o2)CCNC1=O` [Compound 12, (R)-3-methyl-3-(5-(2-((4-(trifluoromethyl)phenyl)amino)pyridin-3-yl)-1,3,4-oxadiazol-2-yl)pyrrolidin-2-one] it is at most 100 nM. As to `C[C@@]1(c2nnc(-c3cccnc3Nc3ccc(C(F)(F)F)cc3)o2)CCNC1=O` [Compound 13, (S)-3-methyl-3-(5-(2-((4-(trifluoromethyl)phenyl)amino)pyridin-3-yl)-1,3,4-oxadiazol-2-yl)pyrrolidin-2-one], the IC50 is at most 100 nM. The figure for `CCN(C#N)CCc1nnc(-c2cccnc2Nc2ccc(C(F)(F)F)cc2)o1` [Compound 15, ethyl-[2-[5-[2-[4-(trifluoromethyl)anilino]-3-pyridyl]-1,3,4-oxadiazol-2-yl]ethyl]cyanamide] is at most 100 nM; for `CN(C#N)CCc1nnc(-c2cccnc2Nc2ccc(C(F)(F)F)cc2)o1` [Compound 16, methyl-[2-[5-[2-[4-(trifluoromethyl)anilino]-3-pyridyl]-1,3,4-oxadiazol-2-yl]ethyl]cyanamide] it is at most 100 nM. As for `CC1(c2nnc(-c3cccnc3Nc3ccc(C(F)(F)F)cc3)o2)CCNC1=O` (stereo not drawn) [Compound 19, 3-methyl-3-(5-(2-((4-(trifluoromethyl)phenyl)amino)pyridin-3-yl)-1,3,4-oxadiazol-2-yl)pyrrolidin-2-one], the figure is at most 100 nM; as for `CC1(c2nnc(-c3nccnc3Nc3ccc(C(F)(F)F)cc3)o2)CCNC1=O` (stereo not drawn) [Compound 20, 3-methyl-3-{5-[3-(4-trifluoromethyl-phenylamino)-pyrazin-2-yl]-[1,3,4]oxadiazol-2-yl}-pyrrolidin-2-one], at most 100 nM; as for `CC[C@@]1(c2nnc(-c3cccnc3Nc3ccc(S(F)(F)(F)(F)F)cc3)o2)CCCNC1=O` [Compound 21, (3S)-3-ethyl-3-[5-[2-[4-(pentafluoro-λ6-sulfanyl)anilino]-3-pyridyl]-1,3,4-oxadiazol-2-yl]piperidin-2-one], at most 100 nM. As for `CC[C@]1(c2nnc(-c3cccnc3Nc3ccc(S(F)(F)(F)(F)F)cc3)o2)CCCNC1=O` [Compound 22, (3R)-3-ethyl-3-[5-[2-[4-(pentafluoro-λ6-sulfanyl)anilino]-3-pyridyl]-1,3,4-oxadiazol-2-yl]piperidin-2-one], the figure is 100 to 1000 nM; as for `CC[C@]1(c2nnc(-c3cccnc3Nc3ccc(S(F)(F)(F)(F)F)cc3)o2)CCNC1=O` [Compound 23, (3R)-3-ethyl-3-[5-[2-[4-(pentafluoro-λ^6-sulfanyl)anilino]-3-pyridyl]-1,3,4-oxadiazol-2-yl]pyrrolidin-2-one], 100 to 1000 nM.

For the compound `CC[C@@]1(c2nnc(-c3cccnc3Nc3ccc(S(F)(F)(F)(F)F)cc3)o2)CCNC1=O` [Compound 24, (3S)-3-ethyl-3-[5-[2-[4-(pentafluoro-λ^6-sulfanyl)anilino]-3-pyridyl]-1,3,4-oxadiazol-2-yl]pyrrolidin-2-one], the IC50 was at most 100 nM. The figure for `CN1CCNC(=O)C1(C)c1nnc(-c2cccnc2Nc2ccc(C(F)(F)F)cc2)o1` (stereo not drawn) [Compound 25, 3,4-dimethyl-3-[5-[2-[4-(trifluoromethyl)anilino]-3-pyridyl]-1,3,4-oxadiazol-2-yl]piperazin-2-one] is 100 to 1000 nM; for `CC1(c2nnc(-c3cccnc3Nc3ccc(C(F)(F)F)cc3)o2)NCCNC1=O` (stereo not drawn) [Compound 26, 3-methyl-3-[5-[2-[4-(trifluoromethyl)anilino]-3-pyridyl]-1,3,4-oxadiazol-2-yl]piperazin-2-one] it is at most 100 nM. The figure for `C[C@@]1(n2nnc(-c3cccnc3Nc3ccc(S(F)(F)(F)(F)F)cc3)n2)CCNC1=O` [Compound 27, (3R)-3-methyl-3-[5-[2-[4-(pentafluoro-λ^6-sulfanyl)anilino]-3-pyridyl]tetrazol-2-yl]pyrrolidin-2-one] is 100 to 1000 nM; for `C[C@]1(n2nnc(-c3cccnc3Nc3ccc(S(F)(F)(F)(F)F)cc3)n2)CCNC1=O` [Compound 28, (3S)-3-methyl-3-[5-[2-[4-(pentafluoro-λ^6-sulfanyl)anilino]-3-pyridyl]tetrazol-2-yl]pyrrolidin-2-one] it is at most 100 nM. The figure for `C[C@]1(c2nnc(-c3cccnc3Nc3ccc(S(F)(F)(F)(F)F)cc3)o2)CCCNC1=O` [Compound 29, (3R)-3-methyl-3-[5-[2-[4-(pentafluoro-λ^6-sulfanyl)anilino]-3-pyridyl]-1,3,4-oxadiazol-2-yl]piperidin-2-one] is at most 100 nM.

Regarding `C[C@@]1(c2nnc(-c3cccnc3Nc3ccc(S(F)(F)(F)(F)F)cc3)o2)CCCNC1=O` [Compound 30, (3S)-3-methyl-3-[5-[2-[4-(pentafluoro-λ^6-sulfanyl)anilino]-3-pyridyl]-1,3,4-oxadiazol-2-yl]piperidin-2-one], the half-maximal inhibitory concentration (IC50) was 100 to 1000 nM. Regarding `CC[C@@]1(c2nnc(-c3cccnc3Nc3ccc(C(F)(F)F)cc3)o2)CCCNC1=O` [Compound 31, (3S)-3-ethyl-3-[5-[2-[4-(trifluoromethyl)anilino]-3-pyridyl]-1,3,4-oxadiazol-2-yl]piperidin-2-one], the IC50 is 100 to 1000 nM. `CC[C@]1(c2nnc(-c3cccnc3Nc3ccc(C(F)(F)F)cc3)o2)CCCNC1=O` [Compound 32, (3R)-3-ethyl-3-[5-[2-[4-(trifluoromethyl)anilino]-3-pyridyl]-1,3,4-oxadiazol-2-yl]piperidin-2-one]: the IC50 was at most 100 nM. The figure for `CC[C@]1(c2nnc(-c3cccnc3Nc3ccc(C(F)(F)F)cc3)o2)CCNC1=O` [Compound 33, (3R)-3-ethyl-3-[5-[2-[4-(trifluoromethyl)anilino]-3-pyridyl]-1,3,4-oxadiazol-2-yl]pyrrolidin-2-one] is at most 100 nM; for `CC[C@@]1(c2nnc(-c3cccnc3Nc3ccc(C(F)(F)F)cc3)o2)CCNC1=O` [Compound 34, (3S)-3-Ethyl-3-[5-[2-[4-(trifluoromethyl)anilino]-3-pyridyl]-1,3,4-oxadiazol-2-yl]pyrrolidin-2-one] it is at most 100 nM; for `C[C@]1(c2nnc(-c3cccnc3Nc3ccc(S(F)(F)(F)(F)F)cc3)o2)CCNC1=O` [Compound 35, (3R)-3-methyl-3-[5-[2-[4-(pentafluoro-λ^6-sulfanyl)anilino]-3-pyridyl]-1,3,4-oxadiazol-2-yl]pyrrolidin-2-one] it is 100 to 1000 nM.
